Laboratory results as given in ChEMBL document CHEMBL3879884, “Compounds and therapeutical use thereof” (2005).
Calls of active or inactive are those of the source. The calls are words filed in the database; no cut-off is given here.

Tests used:
[1] = molecular target: T1, DNA topoisomerase II (Homo sapiens) (UniProt P11388+Q02880); experiment: Binding affinity to p170 form of human DNA topoisomerase-2 at 50 nM in presence of UV irradiation after 60 mins by agarose gel electrophoresis; assay type: protein assay; settings: tested as the 3H-labelled form
[2] = Cytotoxicity against human DLD cells assessed as inhibition of cell proliferation after 48 hrs by CellTiter-Glo assay; assay type: functional
[3] = molecular target: T1, DNA topoisomerase II (Homo sapiens); experiment: Inhibition of DNA topoisomerase-2 (unknown origin) assessed as decrease in relaxation of supercoiled pRYG DNA at 12.5 to 100 uM after 50 mins by ethidium bromide staining-based agarose gel electrophoresis; assay type: protein assay
[4] = molecular target: T1, DNA topoisomerase II (Homo sapiens); experiment: Inhibition of DNA topoisomerase-2 (unknown origin) assessed as decrease in relaxation of supercoiled pRYG DNA at 1 to 10 uM after 50 mins by agarose gel electrophoresis; assay type: protein assay
Escherichia coli = experiment: Binding affinity to Escherichia coli supercoiled pRYG DNA assessed as reduction of DNA topoisomerase-1-mediated relaxation of supercoiled DNA at 1 to 10 uM by agarose gel electrophoresis

## Cc1nc(N(C)c2ccc(N=[N+]=[N-])cc2)c2ccccc2n1
[1]
  Activity: Active

## COc1ccc(Nc2nc(Cl)nc3ccccc23)cc1
[2]
  GI50: > 10 µM

## COc1ccc(N(C)c2nc(Cl)nc3ccccc23)cc1
[3]
  inhibition: Active

## CC[n+]1c(-c2ccccc2)c2cc(N)ccc2c2ccc(N)cc21
[4]
  inhibition: Active
Escherichia coli
  Activity: Active
